Data: paper PMC9555642 (PLoS ONE, 2022)

Target: T1, HDAC10 (Homo sapiens, UniProt Q969S8)
T1 construct: purchased Eurofins Pharma Discovery Services 2662
T1 sequence (Q969S8 1-669): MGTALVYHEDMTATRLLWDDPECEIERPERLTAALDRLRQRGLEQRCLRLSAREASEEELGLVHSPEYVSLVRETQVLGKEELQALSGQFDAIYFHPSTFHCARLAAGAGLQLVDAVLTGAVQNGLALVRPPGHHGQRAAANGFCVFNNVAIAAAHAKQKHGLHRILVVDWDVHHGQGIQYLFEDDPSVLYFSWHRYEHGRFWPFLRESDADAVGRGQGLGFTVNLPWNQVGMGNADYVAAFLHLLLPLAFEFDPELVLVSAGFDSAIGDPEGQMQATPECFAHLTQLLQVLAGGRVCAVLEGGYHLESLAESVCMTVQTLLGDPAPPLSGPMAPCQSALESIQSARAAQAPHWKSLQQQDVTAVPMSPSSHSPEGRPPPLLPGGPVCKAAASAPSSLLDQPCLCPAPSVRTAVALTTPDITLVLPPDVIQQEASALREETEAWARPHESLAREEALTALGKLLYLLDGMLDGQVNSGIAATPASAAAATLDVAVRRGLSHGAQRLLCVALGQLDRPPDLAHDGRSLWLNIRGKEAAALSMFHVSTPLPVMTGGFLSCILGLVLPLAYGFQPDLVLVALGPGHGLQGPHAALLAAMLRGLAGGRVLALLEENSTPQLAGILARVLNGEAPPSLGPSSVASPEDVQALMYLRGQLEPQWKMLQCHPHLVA
Assay: HDAC enzymatic activity (Eurofins)
Format: biochemical

## O=C(CCCCCCNC(=O)c1cnc(N(c2ccccc2)c2ccccc2)nc1)NO [Ricolinostat]
  IC50: 901 nM
